{"source": "paper PMC9688111", "about": "“An Evolutionary Perspective on the Origin, Conservation and Binding Partner Acquisition of Tankyrases” (Biomolecules, 2022)", "key": {"AqTNKS SAM-ART": {"target": "T1, AqTNKS SAM-ART (Amphimedon queenslandica, UniProt A0AAN0IWK4)", "T1 construct": "SAM and ART domains, Pro889-Thr1181; N-terminal MBP tag kept; E. coli BL21(DE3); forms multimers", "T1 sequence (A0AAN0IWK4 entry or part of it)": "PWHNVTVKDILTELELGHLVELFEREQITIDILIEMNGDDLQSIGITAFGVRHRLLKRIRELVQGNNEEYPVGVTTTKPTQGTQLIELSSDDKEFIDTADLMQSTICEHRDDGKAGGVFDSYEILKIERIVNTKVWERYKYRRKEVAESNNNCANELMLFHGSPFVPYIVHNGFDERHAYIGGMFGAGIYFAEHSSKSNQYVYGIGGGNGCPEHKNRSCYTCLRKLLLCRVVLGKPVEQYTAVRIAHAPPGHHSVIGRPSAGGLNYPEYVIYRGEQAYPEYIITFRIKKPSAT", "assay": "auto-PARylation, Western blot", "format": "biochemical", "details": "[…] protein; biotin-NAD+/NAD+ ([…]), […] total; […] h, room temperature; labelled compound as tracer"}, "TNKS1 SAM-ART": {"target": "T2, TNKS1 SAM-ART (Homo sapiens, UniProt O95271)", "T2 construct": "gene TNKS; SAM and ART domains; N-terminal MBP tag kept; E. coli BL21(DE3)", "T2 sequence (O95271 1030-1327 limits assumed)": "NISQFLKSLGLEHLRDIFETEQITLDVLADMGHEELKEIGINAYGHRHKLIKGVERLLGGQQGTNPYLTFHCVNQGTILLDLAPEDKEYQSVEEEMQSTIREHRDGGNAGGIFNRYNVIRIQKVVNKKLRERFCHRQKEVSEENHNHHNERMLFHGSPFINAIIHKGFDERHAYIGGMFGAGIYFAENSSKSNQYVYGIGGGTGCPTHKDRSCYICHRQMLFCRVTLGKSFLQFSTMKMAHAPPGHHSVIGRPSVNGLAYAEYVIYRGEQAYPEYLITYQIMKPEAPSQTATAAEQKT", "assay": "auto-PARylation, Western blot", "format": "biochemical", "details": "[…] protein; biotin-NAD+/NAD+ ([…]), […] total; […] h, room temperature; labelled compound as tracer"}, "AqTNKS ART": {"target": "T3, AqTNKS ART (Amphimedon queenslandica, UniProt A0AAN0IWK4)", "T3 construct": "catalytic ART domain, Thr968-Thr1181; MBP tag removed by TEV; E. coli BL21(DE3), codon-optimized", "T3 sequence (A0AAN0IWK4 entry or part of it)": "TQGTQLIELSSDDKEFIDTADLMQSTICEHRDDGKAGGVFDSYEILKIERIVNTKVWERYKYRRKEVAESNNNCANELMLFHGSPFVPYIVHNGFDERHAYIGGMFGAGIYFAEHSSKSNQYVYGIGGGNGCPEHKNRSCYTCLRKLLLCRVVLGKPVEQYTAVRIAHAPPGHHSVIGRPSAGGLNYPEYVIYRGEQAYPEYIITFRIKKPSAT", "assay": "differential scanning fluorimetry (SYPRO orange)", "format": "binding", "details": "[…] protein, […] compound, pH […]"}, "TNKS1 ART": {"target": "T4, TNKS1 ART (Homo sapiens, UniProt O95271)", "T4 construct": "gene TNKS; catalytic ART domain; E. coli BL21(DE3)", "T4 sequence (O95271 1105-1327 limits assumed)": "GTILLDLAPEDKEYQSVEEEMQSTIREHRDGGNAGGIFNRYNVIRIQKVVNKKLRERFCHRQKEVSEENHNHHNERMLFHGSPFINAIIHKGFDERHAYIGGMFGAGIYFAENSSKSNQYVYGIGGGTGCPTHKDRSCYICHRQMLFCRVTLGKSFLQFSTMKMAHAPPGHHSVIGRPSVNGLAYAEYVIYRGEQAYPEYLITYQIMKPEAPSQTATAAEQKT", "assay": "differential scanning fluorimetry (SYPRO orange)", "format": "binding", "details": "[…] protein, […] compound, pH […]; adenosine site"}, "CFP-ARC5 (AqTNKS)": {"target": "T5, CFP-ARC5 (AqTNKS) (Amphimedon queenslandica)", "T5 chain": "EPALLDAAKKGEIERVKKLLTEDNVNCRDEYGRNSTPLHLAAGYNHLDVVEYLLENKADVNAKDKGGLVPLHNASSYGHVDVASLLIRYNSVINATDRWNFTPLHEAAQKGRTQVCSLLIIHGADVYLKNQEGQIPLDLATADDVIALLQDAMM", "assay": "FRET"}}, "note": "No end group written: not given here. YFP = yellow fluorescent protein"}
{"molecule": "NC(=O)c1ccc[n+]([C@@H]2O[C@H](COP(=O)(O)OP(=O)(O)OC[C@H]3O[C@@H](n4cnc5c(N)ncnc54)[C@H](O)[C@@H]3O)[C@@H](O)[C@H]2O)c1", "note": "[NAD^+]", "values": [{"measurement": "auto-PARylation, Western blot", "setting": "AqTNKS SAM-ART", "value": "PARylation of the proteins was clearly detected for the SAM-ART constructs of AqTNKS and TNKS1"}, {"measurement": "auto-PARylation, Western blot", "setting": "TNKS1 SAM-ART", "value": "PARylation of the proteins was clearly detected for the SAM-ART constructs of AqTNKS and TNKS1"}]}
{"molecule": "O=c1[nH]nc2c3c(cccc13)NC(CN1Cc3ccccc3C1)=N2", "note": "[E7449]", "values": [{"measurement": "Tm shift", "setting": "AqTNKS ART; nicotinamide site", "value": "For all inhibitors, the melting temperatures for both TNKS1 and AqTNKS were similarly increased"}]}
{"molecule": "CS(=O)(=O)c1ccc(-c2nnc(/C=C/c3nnc(-c4ccc(C#N)cc4)o3)n2-c2ccccc2Cl)nc1", "note": "[G007-LK]", "values": [{"measurement": "Tm shift", "setting": "TNKS1 ART", "value": "For all inhibitors, the melting temperatures for both TNKS1 and AqTNKS were similarly increased"}, {"measurement": "Tm shift", "setting": "AqTNKS ART; adenosine site", "value": "For all inhibitors, the melting temperatures for both TNKS1 and AqTNKS were similarly increased"}]}
{"molecule": "COc1ccc(C(=O)C2CCN(CC(=O)N(Cc3nc4c(c(=O)[nH]3)COCC4)CC3CC3)CC2)cc1", "note": "[NVP-TNKS656]", "values": [{"measurement": "Tm shift", "setting": "AqTNKS ART; dual site", "value": "For all inhibitors, the melting temperatures for both TNKS1 and AqTNKS were similarly increased"}]}
{"molecule": "Cc1cc(N2C[C@@H](C)N[C@@H](C)C2)ncc1-c1ccc(-c2nc3c(ccn3C)c(=O)[nH]2)cc1", "note": "[AZ6102]", "values": [{"measurement": "Tm shift", "setting": "AqTNKS ART; nicotinamide site, compound named in Results but not in the Methods list", "value": "For all inhibitors, the melting temperatures for both TNKS1 and AqTNKS were similarly increased"}]}
{"molecule": "O=c1[nH]c(-c2ccc(C(F)(F)F)cc2)nc2c1CSCC2", "note": "[XAV939]", "values": [{"measurement": "Tm shift", "setting": "AqTNKS ART; nicotinamide site", "value": "For all inhibitors, the melting temperatures for both TNKS1 and AqTNKS were similarly increased"}]}
{"molecule": "{YFP}-REAGDGEE", "note": "[YFP-REAGDGEE]", "values": [{"measurement": "Kd", "setting": "CFP-ARC5 (AqTNKS)", "value": 98.5, "unit": "nM"}]}
